Data taken from ChEMBL document CHEMBL1145770, “Efficient synthesis of 3-trifluoromethylphenyldiazirinyl oleic acid derivatives and their biological activity for protein kinase C” (Bioorg Med Chem Lett, 2003).

Target: Protein kinase C alpha type (Homo sapiens) (UniProt P17252)
Experiment: Effect on diacylglycerol induced (DAG) PKC activation at 1-10 uM
Format: functional

O=C(O)CCCCCCC/C=C/CCCCCCCCOc1cc(C2(C(F)(F)F)N=N2)ccc1I
Activity: 40%
